Series [1] can be described thus: Stability analysis: mobility of initiator compound from cured print into analog solutions, by HPLC. To be noted: 40° C. for 10 days, calculated for 1 kg of food per 600 cm^2 printing area. Type of series: physicochemical.
Experimental: The cardboard is cut to a size of 10×10 cm, is completely immersed in two analog solutions, i. e., 100 ml distilled water and 3% acetic acid aqueous solution, sealing is performed well, and placement is performed at 40° C. for 10 days. The printed matter is taken out, and after standing, the contents of the initiator compounds in the analog solutions are directly analyzed by means of HPLC.
Series [2] can be described thus: Solubility of solid photoinitiator in liquid polymerized monomer (HDDA or TPGDA). Conditions: dissolved at 50-60° C., stored at room temperature.

As for `CCCCC1(CCCC)c2ccccc2-c2ccc(C(=O)C(C)(C)N3CCOCC3)cc21` [2-methyl-1-(2-(9,9-dibutylfluorenyl))-2-(N-morpholinyl)-1-acetone], the Mobility in series [1] (3% acetic acid) is 60 µg/kg; in series [1] (Water) it was 50 µg/kg.

With `CC(C)(C(=O)c1ccc(-c2ccccc2)cc1)N1CCOCC1` [2-methyl-1-(4-biphenyl)-2-morpholinyl-1-acetone], the values for the Mobility in series [1] (3% acetic acid) and in series [1] (Water) were 98 µg/kg and 80 µg/kg, respectively. Also, the Solubility in series [2] (Polymerized monomer 1: HDDA) is recorded as 20 % (mass fraction); in series [2] (Polymerized monomer 2: TPGDA), 15 % (mass fraction).
